Broadly, the IC50 is the point on the concentration scale where inhibition reaches its midpoint. A high value points to weaker potency in that assay.

Each structure is given as a SMILES string. Active and inactive are the calls of the source. The calls are words filed in the database; no cut-off is given here.

In ChEMBL document CHEMBL4825659, “Terpenoids from Chinese Liverworts Scapania spp” (J Nat Prod, 2021) one finds IC50 and Activity data, which are given here for 7 compounds.

Assay [1] in a line: Cytotoxicity against mouse Hepa1c1c7 cells incubated for 24 hrs by MTT based assay. The format is functional, cell-based. Particulars: Hepa-1c1c7, 24 h. (In general: Formazan colour is commonly taken as a measure of viable cells.)
Assay [2] addresses NAD(P)H dehydrogenase [quinone] 1 (Mus musculus) (UniProt Q64669). Briefly: Induction of quinone reductase activity in mouse Hepa1c1c7 cells at 50 uM incubated for 24 hrs by MTT based assay relative to control. Format: cell-based.

Sequence of NAD(P)H dehydrogenase [quinone] 1 (Mus musculus) (Q64669 whole entry): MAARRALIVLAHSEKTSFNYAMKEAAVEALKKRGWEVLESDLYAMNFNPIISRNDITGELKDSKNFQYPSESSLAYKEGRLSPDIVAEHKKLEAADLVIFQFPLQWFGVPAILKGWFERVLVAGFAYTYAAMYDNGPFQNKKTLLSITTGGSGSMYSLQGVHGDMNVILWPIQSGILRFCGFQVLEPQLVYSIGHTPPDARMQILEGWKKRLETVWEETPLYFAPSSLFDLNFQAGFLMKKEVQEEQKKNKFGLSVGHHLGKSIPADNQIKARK

`CC(=O)O[C@@H]1C[C@H](C)[C@@]2(C)C[C@@]3(C4=CC(=O)OC4O)OC[C@]14C2(CC[C@@H]1O[C@@]14C)O3` (some centres undefined) registered a concentration for half-maximal inhibition (IC50) in assay [1] of more than 50 µM. The outcome in assay [2] (filed as activator) was Active.
As to `CC1(C)CC[C@@H](O)[C@]2(C)[C@@H]1C(=O)C[C@@]13C[C@H]4[C@@H](C(=O)[C@H]12)[C@]4(C)C3`, in assay [1], the 50% inhibitory concentration (IC50) is more than 50 µM. Besides, in assay [2], the outcome was inactive.
In the case of `CC(=O)O[C@@H]1C[C@H](C)[C@@]2(C)C[C@@]3(C4=CC(O)OC4=O)OC[C@]14C2(CC[C@@H]1O[C@@]14C)O3` (some centres undefined), the half-maximal inhibitory concentration (IC50) in assay [1] is more than 50 µM. Further, the outcome in assay [2] (filed as activator) was Active.
In turn, `CO[C@]1(C2=CC(=O)OC2O)C[C@]2(C)[C@@H](C)C[C@@H](OC(C)=O)[C@]3(COC(C)=O)C2(CC[C@@H]2O[C@@]23C)O1` (some centres undefined) displayed a 50% inhibitory concentration (IC50) in assay [1] of more than 50 µM. In assay [2] (filed as activator), the outcome was Active.
On to `C[C@H]1C[C@H]2O[C@@]3(C)[C@@H](O)CCC45O[C@@](C6=CC(=O)OC6O)(C[C@]14C)OC[C@@]253` (some centres undefined), for which the half-inhibitory concentration (IC50) in assay [1] was more than 50 µM. For the same compound, the result in assay [2] was inactive.
On to `CC(=O)O[C@@H]1C[C@H](C)[C@@]2(C)C[C@@]3(c4ccoc4)OC[C@]14C2(CC[C@@H]1O[C@@]14C)O3`, for which, in assay [1], the IC50 was more than 50 µM. For the same compound, the outcome in assay [2] was inactive.
On the same counts, the results for `C[C@H]1C[C@H]2O[C@@]3(C)[C@@H](O)CCC45O[C@@](c6ccoc6)(C[C@]14C)OC[C@@]253` are more than 50 µM and “inactive”.
